Values quoted from earlier work as cited in PubChem BioAssay AID1259409 (Chemical Carcinogenesis Research Information System (CCRIS), 2018).

System: rodent chemically induced tumor inhibition, incidence and multiplicity
Assay: CCRIS tumor inhibitor studies

SMILES | tumour outcome (control, treated, inhibition, significance) (Carcinogen: 1,2-DIMETHYLHYDRAZINE, 540-73-8, Dose [Inhibitor]: 0, 250 PPM IN DIET BEGINNING POST CARCINOGEN TREATMENT AND CONTINUING FOR DURATION OF STUDY (STUDY DURATION: 365 D), Route [Inhibitor]: ORAL, Species: RAT, Strain/Sex: F344/MALE, Target Tissue: Type of Lesion: LARGE INTESTINE: ADENOMA OR ADENOCARCINOMA, Dose [Carcinogen]: 20 MG/KG BW 10 TIMES, Promoter: NONE USED) | tumour outcome (control, treated, inhibition, significance) (Carcinogen: 1,2-DIMETHYLHYDRAZINE, 540-73-8, Dose [Inhibitor]: 0, 250 PPM IN DIET BEGINNING POST CARCINOGEN TREATMENT AND CONTINUING FOR DURATION OF STUDY (STUDY DURATION: 365 D), Route [Inhibitor]: ORAL, Species: RAT, Strain/Sex: F344/MALE, Target Tissue: Type of Lesion: SMALL INTESTINE: ADENOCARCINOMA, Dose [Carcinogen]: 20 MG/KG BW 10 TIMES, Promoter: NONE USED) | tumour outcome (control, treated, inhibition, significance) (Carcinogen: 1,2-DIMETHYLHYDRAZINE, 540-73-8, Dose [Inhibitor]: 0, 500 PPM IN DIET BEGINNING POST CARCINOGEN TREATMENT AND CONTINUING FOR DURATION OF STUDY (STUDY DURATION: 365 D), Route [Inhibitor]: ORAL, Species: RAT, Strain/Sex: F344/MALE, Target Tissue: Type of Lesion: LARGE INTESTINE: ADENOMA OR ADENOCARCINOMA, Dose [Carcinogen]: 20 MG/KG BW 10 TIMES, Promoter: NONE USED) | tumour outcome (control, treated, inhibition, significance) (Carcinogen: 1,2-DIMETHYLHYDRAZINE, 540-73-8, Dose [Inhibitor]: 0, 500 PPM IN DIET BEGINNING POST CARCINOGEN TREATMENT AND CONTINUING FOR DURATION OF STUDY (STUDY DURATION: 365 D), Route [Inhibitor]: ORAL, Species: RAT, Strain/Sex: F344/MALE, Target Tissue: Type of Lesion: SMALL INTESTINE: ADENOMA, Dose [Carcinogen]: 20 MG/KG BW 10 TIMES, Promoter: NONE USED) | tumour outcome (control, treated, inhibition, significance) (Carcinogen: 1,2-DIMETHYLHYDRAZINE, 540-73-8, Dose [Inhibitor]: 0, 1000 PPM IN DIET BEGINNING POST CARCINOGEN TREATMENT AND CONTINUING FOR DURATION OF STUDY (STUDY DURATION: 365 D), Route [Inhibitor]: ORAL, Species: RAT, Strain/Sex: F344/MALE, Target Tissue: Type of Lesion: LARGE INTESTINE: ADENOMA OR ADENOCARCINOMA, Dose [Carcinogen]: 20 MG/KG BW 10 TIMES, Promoter: NONE USED) | tumour outcome (control, treated, inhibition, significance) (Carcinogen: 1,2-DIMETHYLHYDRAZINE, 540-73-8, Dose [Inhibitor]: 0, 1000 PPM IN DIET BEGINNING POST CARCINOGEN TREATMENT AND CONTINUING FOR DURATION OF STUDY (STUDY DURATION: 365 D), Route [Inhibitor]: ORAL, Species: RAT, Strain/Sex: F344/MALE, Target Tissue: Type of Lesion: SMALL INTESTINE: ADENOCARCINOMA, Dose [Carcinogen]: 20 MG/KG BW 10 TIMES, Promoter: NONE USED) | tumour outcome (control, treated, inhibition, significance) (Carcinogen: 1,2-DIMETHYLHYDRAZINE, 540-73-8, Dose [Inhibitor]: 0, 2000 PPM IN DIET BEGINNING POST CARCINOGEN TREATMENT AND CONTINUING FOR DURATION OF STUDY (STUDY DURATION: 365 D), Route [Inhibitor]: ORAL, Species: RAT, Strain/Sex: F344/MALE, Target Tissue: Type of Lesion: LARGE INTESTINE: ADENOCARCINOMA, Dose [Carcinogen]: 20 MG/KG BW 10 TIMES, Promoter: NONE USED) | tumour outcome (control, treated, inhibition, significance) (Carcinogen: 1,2-DIMETHYLHYDRAZINE, 540-73-8, Dose [Inhibitor]: 0, 2000 PPM IN DIET BEGINNING POST CARCINOGEN TREATMENT AND CONTINUING FOR DURATION OF STUDY (STUDY DURATION: 365 D), Route [Inhibitor]: ORAL, Species: RAT, Strain/Sex: F344/MALE, Target Tissue: Type of Lesion: SMALL INTESTINE: ADENOCARCINOMA, Dose [Carcinogen]: 20 MG/KG BW 10 TIMES, Promoter: NONE USED) | tumour outcome (control, treated, inhibition, significance) (Carcinogen: METHYLAZOXYMETHANOL ACETATE, 592-62-1, Dose [Inhibitor]: 0, 500 PPM IN DIET BEGINNING 2 WK POST CARCINOGEN TREATMENT AND CONTINUING FOR DURATION OF STUDY (STUDY DURATION: 255 D), Route [Inhibitor]: ORAL, Species: RAT, Strain/Sex: F344/MALE, Target Tissue: Type of Lesion: LARGE INTESTINE: ADENOMA OR ADENOCARCINOMA, Dose [Carcinogen]: 25 MG/KG BW 1/WK FOR 3 WK, Promoter: NONE USED) | tumour outcome (control, treated, inhibition, significance) (Carcinogen: METHYLAZOXYMETHANOL ACETATE, 592-62-1, Dose [Inhibitor]: 0, 500 PPM IN DIET BEGINNING 2 WK POST CARCINOGEN TREATMENT AND CONTINUING FOR DURATION OF STUDY (STUDY DURATION: 255 D), Route [Inhibitor]: ORAL, Species: RAT, Strain/Sex: F344/MALE, Target Tissue: Type of Lesion: SMALL INTESTINE: ADENOCARCINOMA, Dose [Carcinogen]: 25 MG/KG BW 1/WK FOR 3 WK, Promoter: NONE USED) | tumour outcome (control, treated, inhibition, significance) (Carcinogen: METHYLAZOXYMETHANOL ACETATE, 592-62-1, Dose [Inhibitor]: 0, 1000 PPM IN DIET BEGINNING 2 WK POST CARCINOGEN TREATMENT AND CONTINUING FOR DURATION OF STUDY (STUDY DURATION: 255 D, Route [Inhibitor]: ORAL, Species: RAT, Strain/Sex: F344/MALE, Target Tissue: Type of Lesion: LARGE INTESTINE: ADENOMA OR ADENOCARCINOMA, Dose [Carcinogen]: 25 MG/KG BW 1/WK FOR 3 WK, Promoter: NONE USED) | tumour outcome (control, treated, inhibition, significance) (Carcinogen: METHYLAZOXYMETHANOL ACETATE, 592-62-1, Dose [Inhibitor]: 0, 1000 PPM IN DIET BEGINNING 2 WK POST CARCINOGEN TREATMENT AND CONTINUING FOR DURATION OF STUDY (STUDY DURATION: 255 D, Route [Inhibitor]: ORAL, Species: RAT, Strain/Sex: F344/MALE, Target Tissue: Type of Lesion: SMALL INTESTINE: ADENOCARCINOMA, Dose [Carcinogen]: 25 MG/KG BW 1/WK FOR 3 WK, Promoter: NONE USED) | tumour outcome (control, treated, inhibition, significance) (Carcinogen: METHYLAZOXYMETHANOL ACETATE, 592-62-1, Dose [Inhibitor]: 500 PPM IN DIET BEGINNING 2 WK POST LAST CARCINOGEN DOSE AND CONTINUING FOR 227 D (STUDY DURATION: 255 D), Route [Inhibitor]: ORAL, Species: RAT, Strain/Sex: F344/MALE, Target Tissue: Type of Lesion: LARGE INTESTINE: ADENOMA OR ADENOCARCINOMA, Dose [Carcinogen]: 25 MG/KG 1/WK FOR 3 WK, Promoter: NONE USED) | tumour outcome (control, treated, inhibition, significance) (Carcinogen: METHYLAZOXYMETHANOL ACETATE, 592-62-1, Dose [Inhibitor]: 1000 PPM IN DIET BEGINNING 2 WK POST LAST CARCINOGEN DOSE AND CONTINUING FOR 227 D (STUDY DURATION: 255 D), Route [Inhibitor]: ORAL, Species: RAT, Strain/Sex: F344/MALE, Target Tissue: Type of Lesion: LARGE INTESTINE: ADENOMA OR ADENOCARCINOMA, Dose [Carcinogen]: 25 MG/KG 1/WK FOR 3 WK, Promoter: NONE USED) | tumour outcome (control, treated, inhibition, significance) (Carcinogen: 7,12-DIMETHYLBENZ[A]ANTHRACENE, 57-97-6, Dose [Inhibitor]: 0, 0.086 UMOL 2/WK BEGINNING 1 WK POST CARCINOGEN DOSE AND CONTINUING FOR DURATION OF STUDY (STUDY DURATION: 15 WK), Route [Inhibitor]: DERMAL, Species: MOUSE, Strain/Sex: SENCAR/FEMALE, Target Tissue: Type of Lesion: SKIN: PAPILLOMA, Dose [Carcinogen]: 10 NMOL ONCE, Promoter: 12-O-TETRADECANOYLPHORBOL-13-ACETATE, 16561-29-8) | tumour outcome (control, treated, inhibition, significance) (Carcinogen: 7,12-DIMETHYLBENZ[A]ANTHRACENE, 57-97-6, Dose [Inhibitor]: 0, 0.342 UMOL 2/WK BEGINNING 1 WK POST CARCINOGEN DOSE AND CONTINUING FOR DURATION OF STUDY (STUDY DURATION: 15 WK), Route [Inhibitor]: DERMAL, Species: MOUSE, Strain/Sex: SENCAR/FEMALE, Target Tissue: Type of Lesion: SKIN: PAPILLOMA, Dose [Carcinogen]: 10 NMOL ONCE, Promoter: 12-O-TETRADECANOYLPHORBOL-13-ACETATE, 16561-29-8) | tumour outcome (control, treated, inhibition, significance) (Carcinogen: 7,12-DIMETHYLBENZ[A]ANTHRACENE, 57-97-6, Dose [Inhibitor]: 0, 0.856 UMOL 2/WK BEGINNING 1 WK POST CARCINOGEN DOSE AND CONTINUING FOR DURATION OF STUDY (STUDY DURATION: 15 WK), Route [Inhibitor]: DERMAL, Species: MOUSE, Strain/Sex: SENCAR/FEMALE, Target Tissue: Type of Lesion: SKIN: PAPILLOMA, Dose [Carcinogen]: 10 NMOL ONCE, Promoter: 12-O-TETRADECANOYLPHORBOL-13-ACETATE, 16561-29-8) | tumour outcome (control, treated, inhibition, significance) (Carcinogen: 7,12-DIMETHYLBENZ[A]ANTHRACENE, 57-97-6, Dose [Inhibitor]: 0, 10 MG A WK IN DRINKING WATER BEGINNING 1 WK POST CARCINOGEN DOSE AND CONTINUING FOR DURATION OF STUDY (STUDY DURATION, Route [Inhibitor]: ORAL, Species: MOUSE, Strain/Sex: SENCAR/MALE, Target Tissue: Type of Lesion: SKIN: PAPILLOMA, Dose [Carcinogen]: 100 NMOL IN 200 µL ACETONE ONCE, Promoter: 12-O-TETRADECANOYLPHORBOL-13-ACETATE, 16561-29-8)
O | 14/30 (47%), 11/32 (34%), 28%, not significant | 6/30 (20%), 5/32 (16%), 20%, not significant | 14/30 (47%), 16/32 (50%), -6%, not significant | 6/30 (20%), 3/32 (9%), 55%, not significant | 14/30 (47%), 11/32 (34%), 28%, not significant | 6/30 (20%), 6/32 (19%), 5%, not significant | 11/30 (37%), 11/31 (35%), 5%, not significant | 6/30 (20%), 10/31 (32%), -60%, not significant | 17/32 (53%), 3/30 (10%), 81%, p<0.0002 | 2/32 (6%), 2/30 (7%), -17%, not significant | 17/32 (53%), 9/30 (30%), 43%, not significant | 2/32 (6%), 2/30 (7%), -17%, not significant | 17/32 (53%), 3/30 (10%), 81%, p<0.0002 | 17/32 (53%), 9/30 (30%), 43%, not calculated |  |  |  | 
CN(C)CCOC(c1ccccc1)c1ccccc1 |  |  |  |  |  |  |  |  |  |  |  |  |  |  | 97%, 75%, 23%, not calculated | 97%, 80%, 18%, not calculated | 97%, 75%, 23%, not calculated | 95%, 98%, -3%, not calculated
